According to patent publication US20130029923A1, “Materials and Methods for Prevention and Treatment of Viral Infections” (priority 2009, published 2013):

Experiments:
[1] = test system: human influenza viruses H1N1 (A/HK/54/98), H9N2 (A/Quail/HK/G1/97), H3N2 (A/H3N2/1174/99); assay type: cell-based, human influenza virus
[2] = test system: influenza M1 protein, H9N2/G1 (A/Quail/HK/G1/97); assay type: cell-based, human influenza virus
[3] = test system: influenza virus H9N2/G1 (A/Quail/HK/G1/97); assay type: cell-based, human influenza virus
[4] = test system: influenza virus H9N2/G1 (A/Quail/HK/G1/97); assay type: cell-based, human influenza virus; remark: listed apart in the source
[5] = test system: influenza virus H1N1 (A/HK/54/98), oseltamivir-sensitive strain; assay type: cell-based, human influenza virus
[6] = test system: influenza virus H3N2 (A/H3N2/1174/99); assay type: cell-based, human influenza virus
[7] = test system: influenza virus H9N2 (A/Quail/HK/G1/97); assay type: cell-based, human influenza virus
prostaglandin E2 (PGE2) = assay type: cell-based, human

## C[C@@H]1O[C@@H](OC[C@H]2O[C@@H](OCCc3ccc(O)c(O)c3)[C@H](O)[C@@H](O)[C@@H]2OC(=O)/C=C/c2ccc(O)c(O)c2)[C@H](O)[C@H](O)[C@H]1O [Compound A1, forsythoside A]
[1]
  anti-influenza virus effects in primary human blood macrophages: possesses anti-influenza virus effects
[2]
  M1 protein expression level compared to DMSO: lower
  relative intensity of M1 (normalized to actin): 0.39
  relative intensity of M1, DMSO-treated over treated cells: more than four fold
[3]
  increase of cells expressing viral proteins from 6 h.p.i. to 10 h.p.i.: about 15%
  percentages of cells expressing viral proteins vs DMSO at 6 h.p.i.: no significant difference
[4]
  virion budding, ultrastructure: slowed or abnormal budding process
MDCK cells
  Cytotoxicity index: 1.02
MDCK cells; 100 ug/ml, 48 hours
  cytotoxicity on MDCK cells: does not exhibit significant cytotoxicity
[5]
  suppression of virus replication (TCID50) compared with DMSO-treated cells: about 15 fold
[6]
  suppression of virus replication (TCID50) compared with DMSO-treated cells: ~12 fold
[7]
  suppression of virus replication (TCID50) compared with DMSO-treated cells: ~24 fold

## COC(=O)CC1(O)C=CC(=O)C=C1 [Compound D1, jacaranone]
Prostaglandin E2 (PGE2)
  PGE2 levels in H9N2/G1-infected macrophages: suppresses PGE2 levels in a dose-dependent manner
  PGE2 levels in non-infected macrophages: does not cause any changes in PGE2 levels

## CCOC(=O)C1=C[C@@H](OC(CC)CC)[C@H](NC(C)=O)[C@@H](N)C1 [Tamiflu, oseltamivir, reference compound]
[5]
  suppression of virus (TCID50) compared with diluent (PBS)-treated cells: more than 30 folds
